Patent US7943142B2, “Euglenoid derived alkaloid” (priority 2008, dated 2011)

Legend:
fish = assay: Fish bioassay (ichthyotoxicity); assay type: in vivo; details: purified toxin
Description: The toxic solvent extracts were subjected to HPLC analytical fractionation. Bioassay guided fractionation was used in all phases of separation to track sample activity and cytotoxic and/or ichthyotoxic extracts were identified. HPLC purification was carried out using a WATERS HPLC system (WATERS 2767 Sample Manager, 1525 Binary Pump, 510 pump, WATERS 2996 PDA and a WATERS ZQ Single Quadrature Mass Detector outfitted with an active flow splitter, switching valve using MASS LYNX software (Waters Corporation, Milford, Mass.). The HPLC/MS method was a water/acetone gradient with 0.2% TFA in both solvents. Extract was loaded onto a Phenomenex (Phenomenex Corporation, Torrance, Calif.) C18 LUNA 3 μm particle size, 250×4.6 mm column. The flow scheme conditions were: 1 mL/min flow rate, 90:10 Water/acetone (hold for 2 minutes). This was followed by a linear gradient over 20 minutes to 100% acetone. The acetone was held for 3 minutes prior to original flow conditions. Column temperature was held at 35° C.
NMR and mass spectral analysis provided unambiguous identification of the novel toxin. […] The euglenoids in culture appear to form the toxin independently of growth phase.

[1] = test system: GH4C1 rat pituitary cells; assay: Cytotoxicity against GH4C1 rat pituitary tissue culture cells; assay type: cell-based
[2] = test system: Ht-29 (ATCC HTB-38) adenocarcinoma cell line; assay: Toxicity against adenocarcinoma cell line Ht-29 (MTS or MTT assay); assay type: cell-based; details: summary statement; test of Example 3 / FIG. 3
Description: Specifically, cancer cells were grown to mid-exponential growth phase, aliquots were added to tissue culture plates with carrier (control) and varying euglenophycin toxin (25, 50, 100 mg/L final concentration), with and without 5-fluorouracil and maintained in dimethyl sulfoxide. Growth was monitored by colorimetric change associated with respiration using MTS or MTT assay).

[3] = test system: Microcystis aeruginosa (cyanobacteria); assay: Algal growth (chlorophyll a) under euglenophycin exposure; assay type: cell-based; details: 0.3, 3 and 30 mg/L; chlorophyll a read daily for four days; FIG. 2
Description: (§1) Clonal isolates of five representative cyanoprokaryote, diatom, and green algae were grown in BG11 media at 28 C on a 14:10 L:D cycle. At mid-exponential phase growth, […] aliquots of each culture was transferred to 96-well plates. Carrier solvent (control) and euglenophycin toxin was added to three of more replicate vials (at 0, 300 ppb, 3 ppm, and 30 ppm) and growth was monitored for […].
(§2) To evaluate the euglenophycin against the growth rate of selected algal taxa. Cultures of five algal species grown in batch culture were exposed to the euglenophycin. The culture include Microcystis aeruginosa (cyanobacteria), Planktothrix (cyanobacteria), Gomphonema parvum (diatom), Scenedesmus dimorphus (green algae), and Oocystis polymorpha (green algae). The cultures were grown using 14:10 hour L:D cycles, in BG11 culture media. When the alga reached exponential phase, the cells were dispensed into Falcon 96-well tissue culture plates and were dosed with euglenophycin at 0, 0.3, 3 and 30 mg/L concentrations. Solvent blanks (acetone) were included in the control test. Readings of chlorophyll a were made on a BMG Labtech FLUOstar Omega spectrometer daily for four days.

[4] = test system: Oocystis polymorpha (green algae); assay: as above; assay type: cell-based; details: 0.3, 3 and 30 mg/L; chlorophyll a read daily for four days; FIG. 2
Description: as §1, §2

[5] = test system: Gomphonema parvum (diatom); assay: as above; assay type: cell-based; details: 0.3, 3 and 30 mg/L; chlorophyll a read daily for four days; FIG. 2
Description: as §1, §2

[6] = test system: Scenedesmus dimorphus (green algae); assay: as above; assay type: cell-based; details: 0.3, 3 and 30 mg/L; chlorophyll a read daily for four days; FIG. 2
Description: as §1, §2

[7] = test system: Planktothrix (cyanobacteria); assay: as above; assay type: cell-based; details: 0.3, 3 and 30 mg/L; chlorophyll a read daily for four days; FIG. 2
Description: as §1, §2

Structure (SMILES): CCC/C=C\CC/C=C/C=C/C1CCCC(CCCCO)N1 (centres unmarked) [euglenophycin]
- fish mortality on re-exposure to the toxin (fish): fish mortalities
- toxicity (cytotoxic activity) towards GH4C1 rat pituitary cells [1]: toxicity
- activity against cancerous cell lines [2]: activity
- effect on culture (chlorophyll a) [3]: negatively affected
- effect on culture (chlorophyll a) [4]: negatively affected
- effect on culture (chlorophyll a) [5]: negatively affected
- effect on culture (chlorophyll a) [6]: negatively affected
- effect on culture (chlorophyll a) [7]: negatively affected
